# The source made the active and inactive calls.
# Tests used:
# ORF 73 = ORF 73 (Human herpesvirus 8, UniProt O40947); experiment: inhibitors of C-LANA binding to LBS DNA, dose response, biochemical, fluorescence polarization, cherry-picked samples (AID 504725); parameters: species or system Human gammaherpesvirus 8;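 note: fluorescence polarization of a labeled DNA duplex reporting LANA DNA binding; potency is for inhibitors that block LANA binding to the DNA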
# Chaperone protein dnaK = Chaperone protein dnaK (Escherichia coli, UniProt C3TRK2); experiment: DnaK beta-domain binding affinity, SAR follow-up, orthogonal assay for DnaK modulator project, biophysical, isothermal titration calorimetry, full-length DnaK (AID 1495)
# Chaperone protein dnaK, sequence (C3TRK2 whole entry): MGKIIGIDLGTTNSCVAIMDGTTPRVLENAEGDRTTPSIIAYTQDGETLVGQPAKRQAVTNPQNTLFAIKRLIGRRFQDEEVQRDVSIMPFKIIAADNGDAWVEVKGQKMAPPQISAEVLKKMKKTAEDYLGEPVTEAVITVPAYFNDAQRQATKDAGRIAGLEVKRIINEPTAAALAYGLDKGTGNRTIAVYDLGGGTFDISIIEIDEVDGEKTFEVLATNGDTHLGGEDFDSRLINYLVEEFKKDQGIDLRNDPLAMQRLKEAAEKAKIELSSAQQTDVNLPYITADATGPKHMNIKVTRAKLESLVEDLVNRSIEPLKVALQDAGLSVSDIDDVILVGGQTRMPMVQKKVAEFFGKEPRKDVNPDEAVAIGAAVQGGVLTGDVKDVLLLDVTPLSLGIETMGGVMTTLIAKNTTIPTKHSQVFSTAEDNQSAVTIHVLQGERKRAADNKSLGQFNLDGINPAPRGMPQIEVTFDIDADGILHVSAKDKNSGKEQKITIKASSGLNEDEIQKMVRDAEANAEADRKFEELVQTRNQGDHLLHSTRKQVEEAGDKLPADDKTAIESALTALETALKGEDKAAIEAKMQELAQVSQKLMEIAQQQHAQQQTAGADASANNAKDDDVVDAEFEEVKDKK
# [1] = molecular target: T1, Eukaryotic translation initiation factor 2-alpha kinase 3 (Homo sapiens, UniProt Q9NZJ5); experiment: Dose response cell-based high-throughput screening assay to measure PERK inhibition. [Related pubchem assays: 1416 ]; assay type: functional
# T1 sequence (Q9NZJ5 whole entry): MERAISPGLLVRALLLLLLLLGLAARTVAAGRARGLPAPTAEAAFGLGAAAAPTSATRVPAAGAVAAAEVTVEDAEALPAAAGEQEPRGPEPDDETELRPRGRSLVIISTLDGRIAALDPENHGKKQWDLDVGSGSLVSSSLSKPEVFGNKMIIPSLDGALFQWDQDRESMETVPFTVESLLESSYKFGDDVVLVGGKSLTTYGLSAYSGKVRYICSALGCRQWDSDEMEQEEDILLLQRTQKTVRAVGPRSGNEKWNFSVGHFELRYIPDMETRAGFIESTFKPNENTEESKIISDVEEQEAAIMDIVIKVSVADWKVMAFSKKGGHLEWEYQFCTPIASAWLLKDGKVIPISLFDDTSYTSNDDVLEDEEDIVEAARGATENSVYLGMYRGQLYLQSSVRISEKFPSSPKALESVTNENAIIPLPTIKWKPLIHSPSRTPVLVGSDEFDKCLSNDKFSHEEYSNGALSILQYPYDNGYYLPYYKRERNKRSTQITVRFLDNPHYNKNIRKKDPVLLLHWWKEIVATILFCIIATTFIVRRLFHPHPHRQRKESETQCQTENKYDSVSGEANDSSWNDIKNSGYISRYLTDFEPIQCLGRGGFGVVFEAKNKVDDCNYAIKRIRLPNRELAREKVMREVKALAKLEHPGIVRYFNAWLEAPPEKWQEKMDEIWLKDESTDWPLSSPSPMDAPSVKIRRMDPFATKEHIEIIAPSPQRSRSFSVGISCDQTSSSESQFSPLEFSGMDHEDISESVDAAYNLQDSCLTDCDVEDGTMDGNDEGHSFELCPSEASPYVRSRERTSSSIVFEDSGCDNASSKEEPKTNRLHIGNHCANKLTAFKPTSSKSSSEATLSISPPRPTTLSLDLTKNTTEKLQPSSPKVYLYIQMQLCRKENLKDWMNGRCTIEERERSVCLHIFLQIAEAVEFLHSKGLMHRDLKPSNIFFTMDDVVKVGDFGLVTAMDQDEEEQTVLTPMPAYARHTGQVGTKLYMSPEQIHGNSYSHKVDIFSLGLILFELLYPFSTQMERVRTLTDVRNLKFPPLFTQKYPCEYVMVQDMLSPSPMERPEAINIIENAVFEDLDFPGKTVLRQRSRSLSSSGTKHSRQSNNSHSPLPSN
# [2] = molecular target: T1, Eukaryotic translation initiation factor 2-alpha kinase 3; experiment: Counterscreen assay for PERK inhibitors: Dose response cell-based high throughput screening assay to measure inhibition of PERK at 6 hours. [Related pubchem assays: 1522, 1416 ]; assay type: functional
# HeLa = experiment: HeLa cell cytotoxicity, dose response, cytotoxicity control, 24 h, cherry-picked samples (AID 504726); assay type: functional, cell-based; settings: Homo sapiens;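 note: potency for cytotoxicity as loss of luminescence signal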
# [3] = cytotoxicity in BJeHLT fibroblasts, dose response, counter-screen for Ras selective lethality project, BJeHLT cells, dry powder (AID 493052); assay type: functional, cell-based; settings: Homo sapiens
# [4] = viability loss in HRASV12 DRD fibroblasts, dose response, cell-based, DRD BJ fibroblasts, dry powder (AID 493049); assay type: functional
# [5] = viability loss in BJeLR (HRASV12) cells, primary screen, Ras selective lethality project, cell-based, Alamar Blue, dry powder (AID 493045); assay type: functional
# [6] = cytotoxicity in BJeH fibroblasts, dose response, counter-screen for Ras selective lethality project, BJeH cells, dry powder (AID 493054); assay type: functional, cell-based
# [7] = molecular target: T2, Mannose-6-phosphate isomerase (Homo sapiens, UniProt P34949); experiment: inhibitors of human PMI, primary screen, biochemical, fluorescence intensity, coupled assay (AID 1209)
# T2 sequence (P34949 whole entry): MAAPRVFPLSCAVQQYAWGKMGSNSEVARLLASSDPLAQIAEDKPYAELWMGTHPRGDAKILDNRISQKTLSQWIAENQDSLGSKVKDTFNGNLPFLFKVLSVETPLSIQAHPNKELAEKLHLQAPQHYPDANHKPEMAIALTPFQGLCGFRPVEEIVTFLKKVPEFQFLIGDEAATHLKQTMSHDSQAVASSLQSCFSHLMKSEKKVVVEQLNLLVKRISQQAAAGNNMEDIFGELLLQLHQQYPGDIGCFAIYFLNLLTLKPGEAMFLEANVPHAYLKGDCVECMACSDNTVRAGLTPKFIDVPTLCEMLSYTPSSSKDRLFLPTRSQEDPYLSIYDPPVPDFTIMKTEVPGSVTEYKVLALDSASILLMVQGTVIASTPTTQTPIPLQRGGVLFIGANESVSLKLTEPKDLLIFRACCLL
# [8] = inhibitors of intracellular T. cruzi replication, confirmation, NIH3T3 host cells, beta-gal luminescence (AID 2044); assay type: functional, cell-based;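 note: intracellular parasites grown in NIH/3T3 mouse fibroblasts as host cells; luminescent beta-galactosidase reporter signal from transgenic T. cruzi replicating inside host cells; inhibitors lower the luminescence signal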
# [9] = cytotoxicity toward NIH3T3 fibroblasts, dose response, counter-screen, cell-based, ATP luminescence, mouse fibroblasts (AID 2010); assay type: functional;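 note: cells exposed to compound for about 90 hours before reading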
# [10] = molecular target: T2, Mannose-6-phosphate isomerase; experiment: PMI enzyme inhibitors, confirmation, biochemical, fluorescence intensity (AID 1535)
# Phosphomannomutase 2 = Phosphomannomutase 2 (Homo sapiens, UniProt O15305); experiment: Counter screen SAR assay for PMM2 inhibitors via a fluorescence intensity assay. [Related pubchem assays (depositor defined):AID1545, AID1574]
# Phosphomannomutase 2, sequence (O15305 whole entry): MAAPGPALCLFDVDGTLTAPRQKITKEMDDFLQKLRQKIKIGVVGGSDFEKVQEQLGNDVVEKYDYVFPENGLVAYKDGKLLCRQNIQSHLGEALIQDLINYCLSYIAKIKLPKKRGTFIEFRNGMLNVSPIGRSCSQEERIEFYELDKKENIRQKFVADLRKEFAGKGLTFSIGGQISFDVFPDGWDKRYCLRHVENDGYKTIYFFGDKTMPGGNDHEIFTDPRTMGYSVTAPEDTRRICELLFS
# [11] = molecular target: Eukaryotic translation initiation factor 4E (Mus musculus, UniProt P63073); experiment: eIF4E–eIF4G protein interaction inhibitors, dose response, biochemical, TR-FRET (AID 855); assay type: functional;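 note: potency for disrupting eIF4E binding to eIF4GI seen as loss of FRET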
# Eukaryotic translation initiation factor 4E, sequence (P63073 whole entry): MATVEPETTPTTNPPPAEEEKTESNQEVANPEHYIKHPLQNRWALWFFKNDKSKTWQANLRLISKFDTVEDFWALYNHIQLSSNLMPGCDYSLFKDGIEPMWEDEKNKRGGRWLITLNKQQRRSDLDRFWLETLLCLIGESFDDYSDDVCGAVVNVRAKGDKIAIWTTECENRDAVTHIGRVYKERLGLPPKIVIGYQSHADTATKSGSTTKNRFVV
# [12] = molecular target: DNA dC->dU-editing enzyme APOBEC-3G (Homo sapiens, UniProt Q9HC16); experiment: Dose Response confirmation of small molecule APOBEC3G DNA Deaminase Inhibitors via a fluorescence-based single-stranded DNA deaminase assay. [Related pubchem assays (depositor defined):AID493012, AID493028]; assay type: functional
# DNA dC->dU-editing enzyme APOBEC-3G, sequence (Q9HC16 whole entry): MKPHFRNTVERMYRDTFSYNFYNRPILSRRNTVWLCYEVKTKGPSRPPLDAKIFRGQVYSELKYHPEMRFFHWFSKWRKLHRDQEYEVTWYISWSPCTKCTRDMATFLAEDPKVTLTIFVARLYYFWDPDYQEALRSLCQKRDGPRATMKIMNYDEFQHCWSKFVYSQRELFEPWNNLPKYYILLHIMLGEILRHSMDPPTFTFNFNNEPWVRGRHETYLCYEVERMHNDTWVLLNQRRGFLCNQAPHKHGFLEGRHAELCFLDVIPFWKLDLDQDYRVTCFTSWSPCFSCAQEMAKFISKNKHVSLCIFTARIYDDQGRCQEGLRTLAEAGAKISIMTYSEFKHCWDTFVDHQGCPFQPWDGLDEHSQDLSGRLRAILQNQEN
# ORF 73, sequence (O40947 whole entry): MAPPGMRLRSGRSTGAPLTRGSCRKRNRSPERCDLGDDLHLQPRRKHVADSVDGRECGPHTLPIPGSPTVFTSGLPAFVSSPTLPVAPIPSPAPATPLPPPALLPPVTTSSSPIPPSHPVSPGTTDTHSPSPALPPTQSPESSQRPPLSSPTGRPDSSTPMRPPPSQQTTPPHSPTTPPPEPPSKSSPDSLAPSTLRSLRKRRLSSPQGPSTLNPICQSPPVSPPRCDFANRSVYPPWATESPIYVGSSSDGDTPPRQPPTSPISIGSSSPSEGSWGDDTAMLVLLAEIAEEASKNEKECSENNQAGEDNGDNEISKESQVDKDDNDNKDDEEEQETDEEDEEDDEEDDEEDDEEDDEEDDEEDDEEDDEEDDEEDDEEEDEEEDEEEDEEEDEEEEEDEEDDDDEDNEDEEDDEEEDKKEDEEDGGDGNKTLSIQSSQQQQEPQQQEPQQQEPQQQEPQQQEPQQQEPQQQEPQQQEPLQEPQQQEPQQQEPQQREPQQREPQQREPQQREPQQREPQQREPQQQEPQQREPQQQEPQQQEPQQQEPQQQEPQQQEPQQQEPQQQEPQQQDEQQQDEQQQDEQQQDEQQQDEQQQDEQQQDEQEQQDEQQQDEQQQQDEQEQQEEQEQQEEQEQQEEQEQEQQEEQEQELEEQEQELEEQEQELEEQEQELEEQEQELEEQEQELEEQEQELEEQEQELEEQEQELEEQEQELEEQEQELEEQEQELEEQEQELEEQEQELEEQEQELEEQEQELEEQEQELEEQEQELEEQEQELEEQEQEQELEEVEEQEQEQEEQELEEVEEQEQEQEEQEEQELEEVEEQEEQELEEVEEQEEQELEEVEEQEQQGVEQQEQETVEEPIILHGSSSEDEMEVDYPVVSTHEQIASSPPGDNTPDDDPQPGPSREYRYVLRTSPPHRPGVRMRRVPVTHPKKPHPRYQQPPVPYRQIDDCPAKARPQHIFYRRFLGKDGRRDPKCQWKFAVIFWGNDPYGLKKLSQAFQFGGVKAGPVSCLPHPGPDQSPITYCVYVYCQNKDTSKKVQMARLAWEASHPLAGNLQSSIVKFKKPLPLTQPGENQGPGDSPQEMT
structure (smiles),measurement,setting,value
O=C(Cn1nc(Cc2ccncc2)c2ccccc2c1=O)N1CCN(C(=O)c2ccco2)CC1,AC50,ORF 73,11.4 µM (active)
O=C(NCc1cccc2ccsc12)c1cccs1,Kd,Chaperone protein dnaK,0.2 µM (active)
Cc1c(O)n2c(nc1=O)sc1ccccc12,EC50,[1],> 55.7 µM (not active)
same,EC50,[2],> 55.7 µM (not active)
CC(=O)N/C(=C/c1ccc(OS(=O)(=O)c2ccc(C)cc2)cc1)C(=O)Nc1ccc(C(=O)O)cc1,AC50,HeLa,132 µM (active)
COc1ccc(N(C(=O)CCl)C(C(=O)NCS(=O)(=O)c2ccc(C)cc2)c2cccs2)cc1Cl (stereo unspecified),AC50,[3],0.208 µM (active)
same,AC50,[4],0.083 µM (active)
same,AC50,[5],0.089 µM (active)
same,AC50,[6],0.347 µM (active)
COc1ccc2nc(N=C(S)N(C)C)sc2c1,IC50,[7],8.33 µM (active)
same,EC50,[8],2.03 µM (active)
same,EC50,[9],> 60 µM (inconclusive)
same,IC50,[10],46.1 µM (active)
same,IC50,Phosphomannomutase 2,> 100 µM (inactive)
same,IC50,[11],> 64 µM (inactive)
same,IC50,[12],40.8 µM (active)

# Reference: ChEMBL document CHEMBL1201862, “PubChem BioAssay data set” (2004)
